Assay results as given in publication PMC10054758, “A Structural-Reporter Group to Determine the Core Conformation of Sialyl Lewis^x Mimetics” (Molecules, 2023).
Where two headings read alike, the source gives them in different places.

Experiments:
E-selectin [1] = target: T1, E-selectin (Homo sapiens, UniProt P16581); test: E-selectin affinity, literature data; assay type: binding; conditions: for ΔG (Gibbs Free Energy): calculated ΔG = -RT lnKD from literature KD
T1 construct: mixed 1:1 with a solution of 0.2 μM labeled E-SelectinSCR2; made in house
T1 sequence (P16581 22-301 limits assumed): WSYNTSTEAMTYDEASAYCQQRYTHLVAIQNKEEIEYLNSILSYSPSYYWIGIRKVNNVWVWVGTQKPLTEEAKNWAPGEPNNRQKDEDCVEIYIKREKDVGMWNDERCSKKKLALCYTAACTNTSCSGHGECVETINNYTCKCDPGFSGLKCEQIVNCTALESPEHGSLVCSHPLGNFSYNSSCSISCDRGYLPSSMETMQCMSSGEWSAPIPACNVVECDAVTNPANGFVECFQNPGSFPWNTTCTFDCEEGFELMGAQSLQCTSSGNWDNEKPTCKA

E-selectin [2] = target: T1, E-selectin; test: Microscale thermophoresis (MST) affinity measurement; assay type: binding; conditions: for Kd: MST, 25 °C, labeled E-selectinSCR2
Procedure: E-selectin production (cloning, transfection, expression, and purification) and labeling were previously described for the E-selectinSCR6-IgGFc construct and for the E-selectinSCR2 construct.
E-selectinLEC2 was labeled using the amine reactive protein labeling kit BLUE-NHS as described in the Supporting Information. Buffer exchange and labeling were performed according to the manufacturer’s protocol. […] The labeled protein was dialyzed over night against assay buffer (10 mM HEPES pH 7.4, 150 mM NaCl, 1 mM CaCl2) using Slide-A-Lyzer dialysis cassettes (10 kDa MWCO). Protein concentration was determined by HPLC-UV against a BSA standard.
Microscale thermophoresis (MST) experiments were carried out at 25 °C with 100% LED power, 50% laser power, a laser on time of 30 s, and a laser off time of 5 sec using standard treated capillaries. Ligands were dissolved in assay buffer supplemented with 0.05% v/v Tween20 and titrated 1:1 for a total of 16 dilution steps. The dilution series of ligand was mixed 1:1 with a solution of 0.2 μM labeled E-SelectinSCR2 and incubated for 10 min at room temperature before measurement. Datapoints were normalized using the bound and unbound borders achieved by NanoTemper Analysis 1.2.205 software (NanoTemper Technologies GmbH, Munich, Germany) and analyzed/illustrated with GraphPad Prism 5.0 (GraphPad Software, La Jolla, CA, USA). The measurements were globally fitted using Equation (1) for single site binding. (1) PL=(CP+CL+KD) - (CP+CL+KD) - 4CPCL/2CP where [PL] is the protein–ligand complex concentration and KD is the dissociation constant. CP represents the total concentration of protein and CL the total concentration of ligand.

E-selectin [3] = target: T1, E-selectin; conditions: literature data; cited from earlier work
E-selectin [4] = target: T1, E-selectin; parameters: method as in PMID 22782926; conditions: binding to E-selectin; cited from earlier work

SMILES: C[C@@H]1O[C@@H](O[C@@H]2CCCC[C@H]2O[C@@H]2O[C@H](CO)[C@H](O)[C@H](O[C@@H](CC3CCCCC3)C(=O)O)[C@H]2O)[C@@H](O)[C@H](O)[C@@H]1O [2a]
- improvement of affinity (E-selectin [1]; GlcNAc replaced by (R,R)-cyclohexane-1,2-diol (22→2a)): five-fold
- ΔG (Gibbs Free Energy) (E-selectin [1]): -5.75 kcal/mol
- improvement of affinity (E-selectin [1]; compared to 21): 80 fold
- ΔΔG (E-selectin [1]; relative to 21 (ΔΔG21→2a)): 2.603 kcal/mol

SMILES: CC(C)[C@H]1CCC[C@@H](O[C@@H]2O[C@H](CO)[C@H](O)[C@H](O[C@@H](CC3CCCCC3)C(=O)O)[C@H]2O)[C@@H]1O[C@@H]1O[C@@H](C)[C@@H](O)[C@@H](O)[C@@H]1O [2d]
- Kd (E-selectin [2]): 6.8 µM

SMILES: C[C@@H]1O[C@@H](O[C@@H]2[C@@H](Cc3ccccc3)CCC[C@H]2O[C@@H]2O[C@H](CO)[C@H](O)[C@H](O[C@@H](CC3CCCCC3)C(=O)O)[C@H]2O)[C@@H](O)[C@H](O)[C@@H]1O [2e]
- Kd (E-selectin [2]): 18 µM

SMILES: C[C@@H]1O[C@@H](O[C@@H]2[C@@H](CC3CCCCC3)CCC[C@H]2O[C@@H]2O[C@H](CO)[C@H](O)[C@H](O[C@@H](CC3CCCCC3)C(=O)O)[C@H]2O)[C@@H](O)[C@H](O)[C@@H]1O [2f]
- Kd (E-selectin [2]): 14 µM

SMILES: C[C@@H]1O[C@@H](O[C@@H]2[C@@H](c3ccccc3)CCC[C@H]2O[C@@H]2O[C@H](CO)[C@H](O)[C@H](O[C@@H](CC3CCCCC3)C(=O)O)[C@H]2O)[C@@H](O)[C@H](O)[C@@H]1O [2g]
- Kd (E-selectin [2]): 8.8 µM

SMILES: C[C@@H]1O[C@@H](O[C@H]2[C@H](O[C@@H]3O[C@H](CO)[C@H](O)[C@H](O[C@@H](CC4CCCCC4)C(=O)O)[C@H]3O)CCC[C@@H]2C(C)(C)C)[C@@H](O)[C@H](O)[C@@H]1O [2h]
- Kd (E-selectin [2]): 51 µM

SMILES: CCCC[C@H]1CCC[C@@H](O[C@@H]2O[C@H](CO)[C@H](O)[C@H](O[C@@H](CC3CCCCC3)C(=O)O)[C@H]2O)[C@@H]1O[C@@H]1O[C@@H](C)[C@@H](O)[C@@H](O)[C@@H]1O [2i]
- Kd (E-selectin [2]): 5.4 µM

SMILES: CCCCCC[C@H]1CCC[C@@H](O[C@@H]2O[C@H](CO)[C@H](O)[C@H](O[C@@H](CC3CCCCC3)C(=O)O)[C@H]2O)[C@@H]1O[C@@H]1O[C@@H](C)[C@@H](O)[C@@H](O)[C@@H]1O [2j]
- Kd (E-selectin [2]): 4.3 µM
- ΔG (Gibbs Free Energy) (E-selectin [2]; calculated ΔG = -RT lnKD from MST KD): -7.321 kcal/mol
- ΔΔG (E-selectin [2]; relative to 2a (ΔΔG2a→2b, ΔΔG2a→2j)): 1.57 kcal/mol

SMILES: C[C@@H]1O[C@@H](O[C@@H]2[C@@H](CCCc3ccccc3)CCC[C@H]2O[C@@H]2O[C@H](CO)[C@H](O)[C@H](O[C@@H](CC3CCCCC3)C(=O)O)[C@H]2O)[C@@H](O)[C@H](O)[C@@H]1O [2k]
- Kd (E-selectin [2]): 28 µM

SMILES: COCCOC[C@H]1CCC[C@@H](O[C@@H]2O[C@H](CO)[C@H](O)[C@H](O[C@@H](CC3CCCCC3)C(=O)O)[C@H]2O)[C@@H]1O[C@@H]1O[C@@H](C)[C@@H](O)[C@@H](O)[C@@H]1O [2l]
- Kd (E-selectin [2]): 31 µM

SMILES: CC(C)C[C@H]1CCC[C@@H](O[C@@H]2O[C@H](CO)[C@H](O)[C@H](O[C@@H](CC3CCCCC3)C(=O)O)[C@H]2O)[C@@H]1O[C@@H]1O[C@@H](C)[C@@H](O)[C@@H](O)[C@@H]1O [2m]
- Kd (E-selectin [2]): 6 µM

SMILES: C[C@@H]1O[C@@H](O[C@@H]2[C@@H](CC(F)(F)F)CCC[C@H]2O[C@@H]2O[C@H](CO)[C@H](O)[C@H](O[C@@H](CC3CCCCC3)C(=O)O)[C@H]2O)[C@@H](O)[C@H](O)[C@@H]1O [2n]
- Kd (E-selectin [2]): 9.5 µM

SMILES: C[C@@H]1O[C@@H](OCCO[C@@H]2O[C@H](CO)[C@H](O)[C@H](O[C@@H](CC3CCCCC3)C(=O)O)[C@H]2O)[C@@H](O)[C@H](O)[C@@H]1O [compound 21, reference compound]
- Kd (E-selectin [3]): 4920 µM
- ΔG (Gibbs Free Energy) (E-selectin [1]): -3.148 kcal/mol

SMILES: CO[C@@H]1O[C@H](CO)[C@@H](O[C@@H]2O[C@H](CO)[C@H](O)[C@H](O[C@@H](CC3CCCCC3)C(=O)O)[C@H]2O)[C@H](O[C@@H]2O[C@@H](C)[C@@H](O)[C@@H](O)[C@@H]2O)[C@H]1NC(C)=O [compound 22]
- Kd (E-selectin [3]): 280 µM

SMILES: COC1OC(CO)C(OC2OC(CO)C(O)C(OC3(C(=O)O)CC(O)C(NC(C)=O)C(C(O)C(O)CO)O3)C2O)C(OC2OC(C)C(O)C(O)C2O)C1NC(C)=O (stereo not shown) [sLe^x (1), sialyl Lewis^x]
- entropy term −TΔS° (E-selectin [4]): 5.4 kcal/mol
- Kd (E-selectin [3]): 877 µM
